Test results: ChEMBL document CHEMBL1777681, “Structure and activity relationships of tartrate-based TACE inhibitors” (Bioorg Med Chem Lett, 2010)

Tests used:
[1] = target: T1, Disintegrin and metalloproteinase domain-containing protein 17 (Homo sapiens, UniProt P78536); test: Inhibition of TACE
[2] = target: T1, Disintegrin and metalloproteinase domain-containing protein 17; test: Inhibition of TACE at 500 nM
[3] = target: T2, Disintegrin and metalloproteinase domain-containing protein 10 (Homo sapiens, UniProt O14672); test: Inhibition of ADAM10
T2 sequence (O14672 whole entry): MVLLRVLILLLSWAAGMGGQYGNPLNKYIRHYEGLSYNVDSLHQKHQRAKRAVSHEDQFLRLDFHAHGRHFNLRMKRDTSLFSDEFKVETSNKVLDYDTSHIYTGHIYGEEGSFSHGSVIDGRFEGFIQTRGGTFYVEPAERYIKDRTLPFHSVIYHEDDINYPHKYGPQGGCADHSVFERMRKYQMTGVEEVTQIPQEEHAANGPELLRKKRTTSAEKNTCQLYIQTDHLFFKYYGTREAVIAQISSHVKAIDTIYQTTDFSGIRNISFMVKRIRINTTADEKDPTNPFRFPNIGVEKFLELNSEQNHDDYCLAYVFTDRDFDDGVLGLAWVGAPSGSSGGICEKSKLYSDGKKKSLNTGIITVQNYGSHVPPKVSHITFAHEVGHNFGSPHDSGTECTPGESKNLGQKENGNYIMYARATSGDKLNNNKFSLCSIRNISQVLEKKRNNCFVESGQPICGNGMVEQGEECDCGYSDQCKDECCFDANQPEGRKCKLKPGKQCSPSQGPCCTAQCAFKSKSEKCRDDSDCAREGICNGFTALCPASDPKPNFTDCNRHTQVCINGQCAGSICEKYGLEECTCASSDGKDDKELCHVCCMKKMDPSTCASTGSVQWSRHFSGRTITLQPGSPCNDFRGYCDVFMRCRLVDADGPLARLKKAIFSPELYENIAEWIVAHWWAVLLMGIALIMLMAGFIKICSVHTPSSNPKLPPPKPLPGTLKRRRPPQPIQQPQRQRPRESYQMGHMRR

Interstitial collagenase = target: T3, Interstitial collagenase (Homo sapiens, UniProt P03956); test: Inhibition of MMP1
T3 sequence (P03956 whole entry): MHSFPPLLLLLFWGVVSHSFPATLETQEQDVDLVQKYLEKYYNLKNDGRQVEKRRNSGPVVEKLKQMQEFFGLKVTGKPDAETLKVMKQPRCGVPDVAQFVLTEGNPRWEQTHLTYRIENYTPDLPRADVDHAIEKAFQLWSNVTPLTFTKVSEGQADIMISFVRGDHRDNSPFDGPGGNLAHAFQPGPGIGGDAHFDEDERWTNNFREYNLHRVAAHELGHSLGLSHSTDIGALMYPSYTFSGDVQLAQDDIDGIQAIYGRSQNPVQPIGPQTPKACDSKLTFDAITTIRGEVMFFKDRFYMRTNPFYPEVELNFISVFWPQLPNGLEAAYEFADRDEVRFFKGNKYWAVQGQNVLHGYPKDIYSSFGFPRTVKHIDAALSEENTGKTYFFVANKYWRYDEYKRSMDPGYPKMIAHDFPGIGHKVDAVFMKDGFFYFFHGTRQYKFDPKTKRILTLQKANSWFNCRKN

[4] = target: 72 kDa type IV collagenase (Homo sapiens, UniProt P08253); test: Inhibition of MMP2
Stromelysin-1 = Stromelysin-1 (Homo sapiens, UniProt P08254); test: Inhibition of MMP3
Matrilysin = target: T4, Matrilysin (Homo sapiens, UniProt P09237); test: Inhibition of MMP7
T4 sequence (P09237 whole entry): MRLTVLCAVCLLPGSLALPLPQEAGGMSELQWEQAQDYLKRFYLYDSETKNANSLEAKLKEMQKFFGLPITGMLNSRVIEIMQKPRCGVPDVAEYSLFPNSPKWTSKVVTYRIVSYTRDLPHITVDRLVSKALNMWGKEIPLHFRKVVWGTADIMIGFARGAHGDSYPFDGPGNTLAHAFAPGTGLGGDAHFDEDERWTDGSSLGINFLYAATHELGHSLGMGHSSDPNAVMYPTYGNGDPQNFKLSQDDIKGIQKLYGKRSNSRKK

[5] = target: Matrix metalloproteinase-9 (Homo sapiens, UniProt P14780); test: Inhibition of MMP9
Collagenase 3 = Collagenase 3 (Homo sapiens, UniProt P45452); test: Inhibition of MMP13
[6] = target: Matrix metalloproteinase-14 (Homo sapiens, UniProt P50281); test: Inhibition of MMP14
[7] = Clearance in Sprague-Dawley rat at 3 mg/kg, iv; format: ADME, organism-based; parameters: dose 3 mg/kg, route intravenous; details: in vivo
[8] = AUC in Sprague-Dawley rat at 3 mg/kg, iv; format: ADME, organism-based; parameters: dose 3 mg/kg, route intravenous; details: plasma
[9] = Half life in Sprague-Dawley rat at 10 mg/kg, po; format: ADME, organism-based; parameters: dose 10 mg/kg, route oral; details: in vivo
[10] = AUC in Sprague-Dawley rat at 10 mg/kg, po; format: ADME, organism-based; parameters: dose 10 mg/kg, route oral; details: plasma
[11] = Bioavailability in Sprague-Dawley rat at 10 mg/kg, po; format: ADME, organism-based; details: in vivo

T1 sequence (P78536 whole entry, the tested form may be a part): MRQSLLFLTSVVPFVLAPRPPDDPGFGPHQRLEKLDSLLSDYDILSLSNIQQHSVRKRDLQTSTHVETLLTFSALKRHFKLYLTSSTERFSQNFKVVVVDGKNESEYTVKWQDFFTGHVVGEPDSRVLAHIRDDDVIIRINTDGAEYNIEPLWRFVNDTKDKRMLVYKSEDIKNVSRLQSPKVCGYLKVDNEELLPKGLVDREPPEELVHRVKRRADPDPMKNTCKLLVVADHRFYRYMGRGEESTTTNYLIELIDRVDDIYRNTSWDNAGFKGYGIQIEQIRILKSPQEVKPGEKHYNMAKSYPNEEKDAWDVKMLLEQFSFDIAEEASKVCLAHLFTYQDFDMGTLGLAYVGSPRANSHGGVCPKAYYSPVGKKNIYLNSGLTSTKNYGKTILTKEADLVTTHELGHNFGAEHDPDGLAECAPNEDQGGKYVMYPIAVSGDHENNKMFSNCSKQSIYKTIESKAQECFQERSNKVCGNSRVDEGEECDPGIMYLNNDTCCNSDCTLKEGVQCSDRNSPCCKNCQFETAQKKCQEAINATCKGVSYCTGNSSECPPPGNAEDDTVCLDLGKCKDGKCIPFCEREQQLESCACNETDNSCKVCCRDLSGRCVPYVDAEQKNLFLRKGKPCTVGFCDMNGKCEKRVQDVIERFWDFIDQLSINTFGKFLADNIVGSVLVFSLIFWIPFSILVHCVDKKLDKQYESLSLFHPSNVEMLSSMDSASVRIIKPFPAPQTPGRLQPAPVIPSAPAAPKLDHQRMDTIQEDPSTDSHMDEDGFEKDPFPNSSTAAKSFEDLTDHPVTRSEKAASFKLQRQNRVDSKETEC
Chain of Matrix metalloproteinase-9 (P14780 whole entry): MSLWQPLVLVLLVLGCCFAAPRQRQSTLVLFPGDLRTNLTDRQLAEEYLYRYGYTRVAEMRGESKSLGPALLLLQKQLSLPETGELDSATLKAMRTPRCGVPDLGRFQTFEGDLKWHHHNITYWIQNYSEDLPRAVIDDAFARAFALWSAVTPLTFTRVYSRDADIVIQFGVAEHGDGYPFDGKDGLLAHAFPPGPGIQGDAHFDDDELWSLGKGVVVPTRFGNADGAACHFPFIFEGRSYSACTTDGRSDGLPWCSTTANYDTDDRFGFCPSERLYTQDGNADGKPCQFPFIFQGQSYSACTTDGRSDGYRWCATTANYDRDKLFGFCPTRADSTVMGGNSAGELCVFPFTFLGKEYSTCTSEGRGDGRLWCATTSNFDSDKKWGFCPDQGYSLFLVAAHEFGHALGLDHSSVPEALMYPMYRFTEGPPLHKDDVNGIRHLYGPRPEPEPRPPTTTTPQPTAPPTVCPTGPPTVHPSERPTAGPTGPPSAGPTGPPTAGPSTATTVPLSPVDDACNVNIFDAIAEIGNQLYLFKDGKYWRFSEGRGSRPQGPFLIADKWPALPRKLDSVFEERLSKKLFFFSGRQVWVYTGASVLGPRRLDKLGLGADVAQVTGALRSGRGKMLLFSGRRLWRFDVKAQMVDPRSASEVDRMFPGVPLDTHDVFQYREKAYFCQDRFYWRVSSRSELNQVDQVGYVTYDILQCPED
Chain of 72 kDa type IV collagenase (P08253 whole entry): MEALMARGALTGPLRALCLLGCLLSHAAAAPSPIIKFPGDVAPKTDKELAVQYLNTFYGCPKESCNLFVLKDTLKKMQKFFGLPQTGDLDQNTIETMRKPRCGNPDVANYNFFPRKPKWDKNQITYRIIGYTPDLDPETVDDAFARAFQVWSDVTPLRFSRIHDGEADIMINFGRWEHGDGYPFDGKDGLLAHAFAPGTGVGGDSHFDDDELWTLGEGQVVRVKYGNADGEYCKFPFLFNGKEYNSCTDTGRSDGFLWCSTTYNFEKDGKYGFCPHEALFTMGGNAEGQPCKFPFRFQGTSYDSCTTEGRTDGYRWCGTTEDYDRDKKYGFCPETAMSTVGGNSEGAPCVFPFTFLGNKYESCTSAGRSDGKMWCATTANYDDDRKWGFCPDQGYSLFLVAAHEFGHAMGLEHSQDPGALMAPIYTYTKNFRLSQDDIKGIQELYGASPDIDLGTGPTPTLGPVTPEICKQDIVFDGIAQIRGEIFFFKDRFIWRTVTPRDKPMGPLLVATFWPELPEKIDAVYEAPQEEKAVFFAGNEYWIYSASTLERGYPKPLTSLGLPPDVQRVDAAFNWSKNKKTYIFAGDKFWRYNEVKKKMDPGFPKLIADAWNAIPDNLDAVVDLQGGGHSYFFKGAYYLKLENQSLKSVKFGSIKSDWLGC
Chain of Stromelysin-1 (P08254 whole entry): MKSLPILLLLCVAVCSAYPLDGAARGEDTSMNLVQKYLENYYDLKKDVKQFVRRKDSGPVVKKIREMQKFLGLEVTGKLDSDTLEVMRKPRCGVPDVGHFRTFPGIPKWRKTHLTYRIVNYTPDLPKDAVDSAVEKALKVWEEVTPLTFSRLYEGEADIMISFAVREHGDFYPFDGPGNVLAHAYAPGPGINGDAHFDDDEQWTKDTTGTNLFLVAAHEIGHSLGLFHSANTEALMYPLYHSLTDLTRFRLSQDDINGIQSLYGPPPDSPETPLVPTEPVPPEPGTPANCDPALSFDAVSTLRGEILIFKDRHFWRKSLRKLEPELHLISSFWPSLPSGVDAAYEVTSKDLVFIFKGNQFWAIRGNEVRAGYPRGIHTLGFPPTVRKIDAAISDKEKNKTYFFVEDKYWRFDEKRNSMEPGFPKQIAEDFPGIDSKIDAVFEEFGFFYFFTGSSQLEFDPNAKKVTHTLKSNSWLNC

Compound	Ki [1]	further results
O=C(NCc1ccc(Cc2ccccc2Cl)s1)[C@H](O)[C@@H](O)C(=O)N1CCC[C@@H]1c1cccc(Cl)c1	9.3 nM	
Cc1nc2ccccc2n1-c1ccc(CNC(=O)[C@H](O)[C@@H](O)C(=O)N2CCCC2c2cccc(Cl)c2)cc1 (mixture of isomers)	296 nM	
Cc1nc2ccccc2n1Cc1ccc(CNC(=O)[C@H](O)[C@@H](O)C(=O)N2Cc3ccccc3C2)s1	0.5 nM	
N#Cc1cnccc1-c1ccc(CNC(=O)[C@H](O)[C@@H](O)C(=O)N2CCC[C@@H]2c2ccccc2)cc1	5 nM	
O=C(NCc1ccc(Cc2cccc(Cl)c2)s1)[C@H](O)[C@@H](O)C(=O)N1CCC[C@@H]1c1cccc(Cl)c1	48 nM	
O=C(NCc1ccc(-c2nccs2)cc1)[C@H](O)[C@@H](O)C(=O)N1CCCC1c1cccc(Cl)c1 (mixture of isomers)	74 nM	
O=C(NCc1ccc(-n2ccnc2)cc1)[C@H](O)[C@@H](O)C(=O)N1CCCC1c1cccc(Cl)c1 (mixture of isomers)	270 nM	
O=C(NCc1cccs1)[C@H](O)[C@@H](O)C(=O)N1CCCC1c1cccc(Cl)c1 (stereo partly specified)		inhibition [2]: 44%
Cc1nc2ccccc2n1Cc1ccc(CNC(=O)[C@H](O)[C@@H](O)C(=O)N2CCCC2c2nccs2)s1 (mixture of isomers)	9 nM	
O=C(NCc1ccc(Cc2ccsc2)s1)[C@H](O)[C@@H](O)C(=O)N1CCC[C@@H]1c1cccc(Cl)c1	11 nM	
C[C@H]1CN(c2ccccc2C#N)CCC1CNC(=O)[C@H](O)[C@@H](O)C(=O)N1CCC[C@@H]1c1ccccc1 (stereo partly specified)	315 nM	
O=C(NCc1ccc(-c2ccccc2)cc1)[C@H](O)[C@@H](O)C(=O)N1CCC[C@@H]1c1ccccc1	22 nM	
Cc1nc2ccccc2n1Cc1ccc(CNC(=O)[C@H](O)[C@@H](O)C(=O)N2CCCC2c2ccccn2)s1 (mixture of isomers)	8 nM	
O=C(NCc1ccc(-c2csnn2)cc1)[C@H](O)[C@@H](O)C(=O)N1CCCC1c1cccc(Cl)c1 (mixture of isomers)	3 nM	
Cc1nc2ccccc2n1Cc1ccc(CNC(=O)[C@H](O)[C@@H](O)C(=O)N2CCCC2c2cccs2)s1 (mixture of isomers)	4 nM	
O=C(NCc1ccc(Cn2ccnc2)s1)[C@H](O)[C@@H](O)C(=O)N1CCC[C@@H]1c1cccc(Cl)c1	37 nM	
O=C(NCc1ccc(-c2ccccc2)nc1)[C@H](O)[C@@H](O)C(=O)N1CCCC1c1cccc(Cl)c1 (mixture of isomers)	307 nM	
O=C(NCc1ccc(Cn2c(C(F)(F)F)nc3ccccc32)s1)[C@H](O)[C@@H](O)C(=O)N1Cc2ccccc2C1	0.2 nM	
Cc1nc2ccccc2n1Cc1ccc(CNC(=O)[C@H](O)[C@@H](O)C(=O)N2CCCC2c2ccncc2)s1 (mixture of isomers)	36 nM	
O=C(NCc1ccc(Cc2cccc3ccccc23)s1)[C@H](O)[C@@H](O)C(=O)N1CCC[C@@H]1c1cccc(Cl)c1		inhibition [2]: 50%
O=C(NCc1ccc(-c2ccon2)cc1)[C@H](O)[C@@H](O)C(=O)N1CCC[C@@H]1c1ccccc1	8 nM	

Compound	Ki [1]	further results
O=C(NCc1ccc(-n2cccn2)cc1)[C@H](O)[C@@H](O)C(=O)N1CCCC1c1cccc(Cl)c1 (mixture of isomers)	4 nM	Ki [3]: 602 nM; Ki (Interstitial collagenase): > 100000 nM; Ki [4]: 1900 nM; Ki (Stromelysin-1): 19000 nM; Ki (Matrilysin): 47000 nM; Ki [5]: 11000 nM; Ki (Collagenase 3): 3500 nM; Ki [6]: 120 nM
N#Cc1ccccc1-c1ccc(CNC(=O)[C@H](O)[C@@H](O)C(=O)N2CCC[C@@H]2c2ccccc2)cc1	17 nM	
O=C(NCc1ccc(Cc2ccc(Cl)cc2)s1)[C@H](O)[C@@H](O)C(=O)N1CCC[C@@H]1c1cccc(Cl)c1	37 nM	
O=C(NCc1ccc(-c2cccs2)cc1)[C@H](O)[C@@H](O)C(=O)N1CCC[C@@H]1c1ccccc1	28 nM	
O=C(NCc1ccc(-c2ccccc2)cn1)[C@H](O)[C@@H](O)C(=O)N1CCCC1c1cccc(Cl)c1 (mixture of isomers)	6 nM	
COc1ccccc1Cc1ccc(CNC(=O)[C@H](O)[C@@H](O)C(=O)N2CCC[C@@H]2c2cccc(Cl)c2)s1	3 nM	
O=C(NCc1ccc(-c2ccncc2)cc1)[C@H](O)[C@@H](O)C(=O)N1CCC[C@@H]1c1ccccc1	15 nM	
Cc1nc2ccccc2n1Cc1ccc(CNC(=O)[C@H](O)[C@@H](O)C(=O)N2CCCC2c2cccnc2)s1 (mixture of isomers)	12 nM	
Cc1nc2ccccc2n1Cc1ccc(CNC(=O)[C@H](O)[C@@H](O)C(=O)N2CCC[C@@H]2c2csc(N)n2)s1	2 nM	
C[C@@H]1CN(c2ccccc2C#N)CCC1CNC(=O)[C@H](O)[C@@H](O)C(=O)N1CCC[C@@H]1c1ccccc1 (stereo partly specified)	2 nM	
N#Cc1ccccc1N1CC2C(CNC(=O)[C@H](O)[C@@H](O)C(=O)N3CCC[C@@H]3c3ccccc3)C2C1 (stereo partly specified)	12 nM	
O=C(NCc1ccc(-c2ccsc2)cc1)[C@H](O)[C@@H](O)C(=O)N1CCC[C@@H]1c1ccccc1	13 nM	
N#Cc1sccc1-c1ccc(CNC(=O)[C@H](O)[C@@H](O)C(=O)N2CCC[C@@H]2c2ccccc2)cc1	2 nM	
O=C(NCc1ccc(-c2cccnc2)cc1)[C@H](O)[C@@H](O)C(=O)N1CCC[C@@H]1c1ccccc1	36 nM	
N#Cc1ccccc1N1CCC(CNC(=O)[C@H](O)[C@@H](O)C(=O)N2CCCC2c2cccc(Cl)c2)CC1 (mixture of isomers)	4 nM	
O=C(NCc1ccc(Cc2ccccc2)s1)[C@H](O)[C@@H](O)C(=O)N1CCC[C@@H]1c1cccc(Cl)c1	20 nM	
O=C(NCc1ccc(-c2cscn2)cc1)[C@H](O)[C@@H](O)C(=O)N1CCCC1c1cccc(Cl)c1 (mixture of isomers)	18 nM	
O=C(NCc1cc(Cc2ccccc2)cs1)[C@H](O)[C@@H](O)C(=O)N1CCCC1c1cccc(Cl)c1 (stereo partly specified)	45 nM	
Cc1nc2ccccc2n1Cc1ccc(CNC(=O)[C@H](O)[C@@H](O)C(=O)N2CCC[C@@H]2c2cccc(Cl)c2)s1	4 nM	
C[C@@H](NC(=O)[C@H](O)[C@@H](O)C(=O)N1CCC[C@@H]1c1cccc(Cl)c1)c1ccc(-n2cccn2)cc1	0.86 nM	clearance [7]: 35 mL/min/kg; AUC [8]: 3.1 µM·h; half-life [9]: 36 min; AUC [10]: 2.1 µM·h; bioavailability [11]: 20%; Ki [3]: 166 nM; Ki (Interstitial collagenase): > 100000 nM; Ki [4]: 43600 nM; Ki (Matrilysin): 3800 nM; Ki [5]: 88400 nM; Ki (Collagenase 3): 3300 nM; Ki [6]: 1100 nM
